Laboratory results from the supplement of paper PMC11061612.

Columns and labels:
Assay in all cases: combination Emax (second highest fraction inhibited in the dose matrix, 72 h); higher = more inhibition; extreme values may be limits of the assay
[1] = tested on: NCI-H82 (Small Cell Lung Carcinoma)
In short: (§1)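 Bliss excess equals the observed combination effect minus the expected value EA + EB − EA·EB, where EA and EB are the effects of each agent alone. Combination Emax is the second-highest inhibition within the matrix. Inhibition was scaled from CellTiter-Glo 2.0 luminescence, with 0 set by vehicle wells and 1 by blank wells, after 72 hours of two-drug dosing of cells plated in 1536-well plates.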

[2] = tested on: CaR-1 (Colorectal Carcinoma)
In short: as §1

[3] = tested on: LB831-BLC (Bladder Carcinoma)
In short: as §1

[4] = tested on: HCC1806 (Breast Carcinoma)
In short: as §1

KELLY (Neuroblastoma) = tested on: KELLY (Neuroblastoma)
In short: as §1

[5] = tested on: DoTc2-4510 (Cervical Carcinoma)
In short: as §1

[6] = tested on: RC-K8 (B-Cell Non-Hodgkin's Lymphoma)
In short: as §1

[7] = tested on: OVCA420 (Ovarian Carcinoma)
In short: as §1

[8] = tested on: CAL-148 (Breast Carcinoma)
In short: as §1

[9] = tested on: TE-9 (Esophageal Squamous Cell Carcinoma)
In short: as §1

[10] = tested on: KYSE-520 (Esophageal Squamous Cell Carcinoma)
In short: as §1

[11] = tested on: LNCaP-Clone-FGC (Prostate Carcinoma)
In short: as §1

SMILES | combination Emax [1] | combination Emax [2] | combination Emax [3] | combination Emax [4] | combination Emax (KELLY (Neuroblastoma)) | combination Emax [5] | combination Emax [6] | combination Emax [7] | combination Emax [8] | combination Emax [9] | combination Emax [10] | combination Emax [11]
COc1nnc2ccc(N3CCC(c4ccc(OCCN5CCN(C)C(=O)[C@H]5C)cc4)CC3)nn12 [AZD5153] + C=CCn1c(=O)c2cnc(Nc3ccc(N4CCN(C)CC4)cc3)nc2n1-c1cccc(C(C)(C)O)n1 [AZD1775] (first compound max 1 µM, partner max 1 µM) | 0.914 | 0.451 | 0.668 | 0.9 | 1 | 0.473 | 0.787 | 0.789 | 0.907 | 0.275 | 0.656 | 0.758
COc1nnc2ccc(N3CCC(c4ccc(OCCN5CCN(C)C(=O)[C@H]5C)cc4)CC3)nn12 [AZD5153] + CN(CC[C@H](CSC1=CC=CC=C1)NC2=C(C=C(C=C2)S(=O)(=O)NC(=O)C3=CC=C(C=C3)N4CCC(CC4)[C@H](C5=CC=CC=C5C6=CC=C(C=C6)Cl)O)S(=O)(=O)C(F)(F)F)CCO [AZD4320] (first compound max 1 µM, 7x7, partner max 1 µM) |  |  |  | 0.588 |  |  | 1 | 0.813 |  |  | 0.58 | 0.747
Cc1c2c(nn1C)CSCc1cc(n(C)n1)CSc1cc(c3ccccc3c1)OCCCc1c(C(=O)O)n(C)c3c-2c(Cl)ccc13 [AZD5991] + C1CN(CCC1(C(=O)N[C@@H](CCO)C2=CC=C(C=C2)Cl)N)C3=NC=NC4=C3C=CN4 [Capivasertib] (first compound max 1 µM, 7x7, partner max 3 µM) | 0.976 | 0.223 | 0.352 | 0.528 | 0.676 | 0.355 | 0.161 | 0.212 | 1 |  | 0.433 | 0.997
Cc1c2c(nn1C)CSCc1cc(n(C)n1)CSc1cc(c3ccccc3c1)OCCCc1c(C(=O)O)n(C)c3c-2c(Cl)ccc13 [AZD5991] + C=CCn1c(=O)c2cnc(Nc3ccc(N4CCN(C)CC4)cc3)nc2n1-c1cccc(C(C)(C)O)n1 [AZD1775] (first compound max 1 µM, partner max 1 µM) | 0.966 | 0.283 | 0.519 | 0.972 | 1 | 0.523 | 0.617 | 0.399 | 1 | 0.366 |  | 0.769
COc1cccc(OCCCN)c1-c1cc(Nc2cnc(C#N)cn2)n[nH]1 [Prexasertib] + C[C@@H]1COCCN1C2=NC(=NC(=C2)C3(CC3)[S@](=N)(=O)C)C4=C5C=CNC5=NC=C4 [AZD6738] (first compound max 1 µM, 7x7, partner max 10 µM) | 0.995 | 0.696 | 0.363 | 0.988 | 1 | 0.88 |  | 0.692 | 0.895 | 0.481 | 0.728 | 0.842
COc1cccc(OCCCN)c1-c1cc(Nc2cnc(C#N)cn2)n[nH]1 [Prexasertib] + Cc1cc2ncnn2cc1Nc1ncc2c(n1)n(C1CCOCC1)c(=O)n2C [AZD7648] (first compound max 1 µM, 7x7, partner max 10 µM) | 1 | 0.67 | 0.314 | 0.978 | 1 | 0.86 |  | 0.699 | 0.734 | 0.516 | 0.728 | 0.83
COc1cccc(OCCCN)c1-c1cc(Nc2cnc(C#N)cn2)n[nH]1 [Prexasertib] + O=C(c1cc(Cc2n[nH]c(=O)c3ccccc23)ccc1F)N1CCN(C(=O)C2CC2)CC1 [Olaparib] (first compound max 1 µM, 7x7, partner max 10 µM) | 0.925 | 0.638 | 0.448 | 0.999 | 0.98 | 0.875 |  | 0.733 | 0.696 | 0.567 | 0.548 | 0.851
COc1cc2c(cc1OCCCCCOc1cc3c(cc1OC)C(=O)N1C=C(C)C[C@H]1C=N3)N=C[C@@H]1CC(C)=CN1C2=O [SG3199] + O=C(c1cc(Cc2n[nH]c(=O)c3ccccc23)ccc1F)N1CCN(C(=O)C2CC2)CC1 [Olaparib] (first compound max 0.001 µM, 7x7, partner max 10 µM) | 0.323 | 0.0995 | 0.159 | 0.212 | 0.375 | 0.321 |  | 0.0795 | 0.211 | 0.0964 | 0.133 | 0.416
CCc1c2c(nc3ccc(O)cc13)-c1cc3c(c(=O)n1C2)COC(=O)[C@]3(O)CC [SN-38] + CN(C)CCCOc1ccc(-c2ccc3ncc4c(c3c2)n(C2CCOCC2)c(=O)n4C)cn1 [AZD0156] (first compound max 0.3 µM, 7x7, partner max 1 µM) | 0.824 | 0.876 | 0.723 | 0.91 | 0.869 | 0.972 |  | 0.171 | 0.912 | 0.395 | 0.284 | 0.76
